Consider one compound from patent US20190038674A1, “Formulation for the Treatment of Diabetes” (priority 2013, published 2019).

What all share (assay type): in vivo, Wistar Albino rat
For test [1], the system named is streptozotocin treated diabetic rats. The test can be described thus: Serum lipid profile (cholesterol, LDL, HDL, triglyceride) in streptozotocin treated diabetic rats. The settings on record: for Lipid profile Cholesterol / Lipid profile HDL / Lipid profile LDL / Lipid profile Triglyceride: after 15th day, Glyclazide 1.44 mg/200 g body weight daily. The procedure:
(§1) Diabetes was induced in rats by the intra peritoneal injection of streptozotocin (Himedia) at a dose of 50 mg/kg body weight dissolved in citrate buffer (0.1 M, pH 4.5) in the volume of 1 ml/kg. The diabetic rats were given 5% w/v glucose solution orally in order to prevent hypoglycemia during the first day after the streptozotocin administration. Three days after the injection (six group), the blood glucose levels were measured and the animals with blood glucose levels above 300 mg/dl were considered as being diabetic and were used in the subsequent experiments. In all the experiments, rats were fasted for 16 hr prior to streptozotocin injection. • a. Total units=202.5 • b. 1 ml=40 units, 0.1 ml=4 units • c. Therefore total units 202.5/40 units=5.06 ml of streptozotocin solution • d. Freshly prepared streptozotocin solution (5.06 ml of solution/36 rats according to body weight) fed as a single dose only once to induce diabetes.
(§2) Experimental rats were divided in 4 groups of 6 rats per group and 4th group further divided in 4 groups with 6 rats in each sub group. The details of treatments were given below:
(§3) Blood samples were collected retro-orbitally from the inner canthus of the eye under light ether anesthesia using capillary tubes (Micro Hemocrit Capillariea, Mucaps) as described by Sorg and Buckner (1964); Blood was transferred into fresh vials and serum was separated by centrifuging at 2000 rpm for 2 min. Blood glucose levels were measured using Accu-Check glucose kit.
(§4) To observe the effect of administration of cow urine powder SMP blends and standard drug glyclazide diabetic rats was determined by measuring the fasting blood glucose levels and serum lipid profiles.
(§5) Day 3 of induction was designed as day 1 for administration of the standard drug glyclazide and cow urine SMP blends to diabetic rats, fasting blood glucose levels measured on days 1, 5, 10 and 15 of the experiment period. Other parameters were determined on after day 15 and residual study was carried out for another 15 days to observe the reappearance diabetes.
The serum lipid profile parameters such as cholesterol, HDL, LDL and triglycerides content were studied by using blood serum obtained during the experiments.
Cholesterol content in the blood samples were analyzed by using Bio Chemistry
Analyzer which is working on the principle of Lambert's-Beer's law.
For estimation of triglycerides, Bio-chemistry Analyzer was used.

Test [2] shares this test system. The experiment in a line: Fasting blood glucose in streptozotocin induced diabetic rats, 15 days of treatment. Particulars: for Blood glucose on 15th day: Glyclazide 1.44 mg/200 g body weight, single oral dose daily, day 1 to 15; for Blood glucose on 1st day: before treatment, group later given Glyclazide 1.44 mg/200 g body weight oral daily. On the procedure: Albino Wistar rats of both sex (male and female) were procured from the laboratory of Columbia Institute of Pharmacy Tekari, Raipur 493111 (C.G.), India, and were maintained under a 12 h light/dark cycle and allowed for feed and water without limit. Approved experimental protocol in accordance with the guidelines provided by the committee for the control and supervision of experiments on animals (CPCSEA). The experimental rats were registered by CPCSEA and registration number was 1321/ac/10/CPCSEA.
A. Species: Wistar Albino rat
as §1, §2
c. Group 3—Standard drug group—Diabetic animals received daily a single oral dose of the reference drug Glyclazide 1.44 mg/200 g body weight from day 1 to 15. […]
as §3, §4, §5
(§6) Blood glucose was measured by using Accu-Check Active Glucometer (Roche) and the result was expressed as milligram per deciliter (mg/dl). This instrument is working on the principle of photometry.

The test system is the same in test [3]. The experiment in a line: Residual effect on blood glucose levels of diabetic rats during 15-day residual period after treatment. The settings on record: residual period after withdrawal, Glyclazide 1.44 mg/200 g. The procedure: as §5, §6
Residual effect of standard drug glyclazide group, skim milk powder group and cow urine powder SMP blends groups (100, 200 and 400 mg) for residual of blood glucose levels in streptozotocin treated rats for 15 days and observations were recorded.

[4] abbreviates: starting value, Glyclazide group.

Several values for one entry are separate records, joined by “and”; a condition that tells them apart may be missing. Equal values may be shown once.

On to `Cc1ccc(S(=O)(=O)NC(=O)NN2CC3CCCC3C2)cc1` (centres unmarked) [Standard Glyclazide, Glyclazide], for which, in test [1], the “Lipid profile Cholesterol” value turned out to be 67.72 ± 3.37 mg/dL, the “Lipid profile HDL” value was found to be 51.55 ± 1.91 mg/dL, the “Lipid profile LDL” value worked out at 16.17 ± 5.25 mg/dL and the “Lipid profile Triglyceride” value was 95.35 ± 3.10 mg/dL. Further, in test [1] (listed as glyclazide), the “Lipid profile Cholesterol” value was determined as 67.72 mg/dL, the “Lipid profile HDL” value worked out at 51.55 mg/dL, the “Lipid profile LDL” value came to 16.17 mg/dL and the “Lipid profile Triglyceride” value is 95.35 mg/dL. Further, in test [1] (setting [4]), the “blood HDL level before treatment (increased from)” value came to 41.75 mg/dL, the “blood LDL level before treatment (reduced from)” value amounted to 83.73 mg/dL, the “blood cholesterol level before treatment (reduced from)” value amounted to 125.44 mg/dL and the “triglyceride level before treatment (reduced from)” value is 187.96 mg/dL. Besides, in test [2], the “Blood glucose on 15th day” value is 125.25 ± 12.33 mg/dL and the “Blood glucose on 1st day” value amounted to 599.16 ± 57.10 mg/dL. Besides, in test [2] (listed as glyclazide), the “Blood glucose on 15th day” value was 125.25 mg/dL and 125.2 mg/dL; the “Blood glucose on 1st day” value is 599.1 mg/dL. The “percent reduce of blood glucose on 15th day” value in test [2] (vs 1st day, Glyclazide 1.44 mg/200 g body weight daily) is recorded as “(79.09%)”. Moreover, in test [3], the “Blood glucose level 20th Day” value amounted to 176.50 ± 29.75 mg/dL, the “Blood glucose level 25th Day” value worked out at 174.76 ± 27.42 mg/dL and the “Blood glucose level 30th Day” value worked out at 201.57 ± 29.85 mg/dL. Also, in test [3] (listed as glyclazide), the “Blood glucose level 20th Day” value is 176.50 mg/dL, the “Blood glucose level 25th Day” value came out at 174.76 mg/dL and the “Blood glucose level 30th Day” value amounted to 201.57 mg/dL.
